Experiments:
Test in all cases: KinomeScan profiling
Assay type in all cases: binding
[1] = molecular target: PHKG1 (Homo sapiens, UniProt Q16816); conditions: PHKG1, 1 μM; read-out: % control
In short: (§1)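 Test agents were profiled at a single concentration of 1 μM (DMSO vehicle) on a near-complete set of 468 kinases. Signal is reported relative to vehicle (100%) and a fully displacing control (0%).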

[2] = molecular target: T1, BRAF (Homo sapiens, UniProt P15056); conditions: read-out: % control
T1 construct: purchased KinomeScan®
T1 sequence (P15056 whole entry): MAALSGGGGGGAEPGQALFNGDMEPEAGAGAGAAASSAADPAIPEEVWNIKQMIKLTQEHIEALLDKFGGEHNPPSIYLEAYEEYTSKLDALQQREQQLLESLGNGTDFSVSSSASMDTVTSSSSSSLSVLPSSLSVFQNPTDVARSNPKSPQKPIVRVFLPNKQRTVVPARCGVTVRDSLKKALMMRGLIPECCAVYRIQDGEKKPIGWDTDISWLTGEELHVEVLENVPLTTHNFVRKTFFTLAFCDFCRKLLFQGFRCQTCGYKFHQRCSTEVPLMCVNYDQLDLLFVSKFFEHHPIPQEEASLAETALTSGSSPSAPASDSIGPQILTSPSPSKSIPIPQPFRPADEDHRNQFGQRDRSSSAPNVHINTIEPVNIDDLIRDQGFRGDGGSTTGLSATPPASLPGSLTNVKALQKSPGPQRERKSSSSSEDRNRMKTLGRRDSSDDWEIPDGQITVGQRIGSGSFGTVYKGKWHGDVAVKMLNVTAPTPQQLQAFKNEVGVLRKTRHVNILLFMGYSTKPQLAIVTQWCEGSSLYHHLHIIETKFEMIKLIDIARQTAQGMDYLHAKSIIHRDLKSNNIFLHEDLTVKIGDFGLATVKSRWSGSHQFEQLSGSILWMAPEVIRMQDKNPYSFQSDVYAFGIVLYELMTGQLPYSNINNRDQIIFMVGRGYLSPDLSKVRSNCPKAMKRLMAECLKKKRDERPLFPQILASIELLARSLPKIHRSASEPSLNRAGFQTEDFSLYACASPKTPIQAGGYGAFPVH
In short: as §1

[3] = molecular target: T2, PRKD2 (Homo sapiens, UniProt Q9BZL6); conditions: PRKD2, 1 μM; read-out: % control
T2 sequence (Q9BZL6 1-878): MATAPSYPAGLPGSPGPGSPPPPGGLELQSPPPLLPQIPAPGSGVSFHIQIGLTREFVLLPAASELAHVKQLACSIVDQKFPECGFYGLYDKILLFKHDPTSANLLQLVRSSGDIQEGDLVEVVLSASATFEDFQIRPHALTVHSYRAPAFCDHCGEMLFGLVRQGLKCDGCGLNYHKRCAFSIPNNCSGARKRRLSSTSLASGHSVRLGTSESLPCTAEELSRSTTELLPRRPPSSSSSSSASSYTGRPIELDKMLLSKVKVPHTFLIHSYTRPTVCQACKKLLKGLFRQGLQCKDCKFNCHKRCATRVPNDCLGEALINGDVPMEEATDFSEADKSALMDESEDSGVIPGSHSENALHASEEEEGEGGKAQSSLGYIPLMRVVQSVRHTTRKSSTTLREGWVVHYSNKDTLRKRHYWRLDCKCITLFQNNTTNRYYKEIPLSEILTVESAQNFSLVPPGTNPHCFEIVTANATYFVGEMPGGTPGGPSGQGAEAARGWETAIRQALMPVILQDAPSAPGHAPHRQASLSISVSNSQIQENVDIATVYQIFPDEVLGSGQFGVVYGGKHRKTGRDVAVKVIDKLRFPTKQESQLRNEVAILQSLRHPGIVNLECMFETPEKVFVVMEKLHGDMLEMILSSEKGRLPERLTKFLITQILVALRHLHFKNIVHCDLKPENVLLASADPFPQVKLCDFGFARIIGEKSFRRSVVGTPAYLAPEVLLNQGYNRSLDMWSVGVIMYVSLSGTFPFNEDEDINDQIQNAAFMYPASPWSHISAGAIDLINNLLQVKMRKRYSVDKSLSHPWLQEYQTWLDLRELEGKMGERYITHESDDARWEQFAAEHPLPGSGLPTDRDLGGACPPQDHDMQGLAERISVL
In short: as §1

[4] = molecular target: MARK3 (Homo sapiens, UniProt P27448); conditions: MARK3, 1 μM; read-out: % control
Chain of MARK3 (P27448 whole entry): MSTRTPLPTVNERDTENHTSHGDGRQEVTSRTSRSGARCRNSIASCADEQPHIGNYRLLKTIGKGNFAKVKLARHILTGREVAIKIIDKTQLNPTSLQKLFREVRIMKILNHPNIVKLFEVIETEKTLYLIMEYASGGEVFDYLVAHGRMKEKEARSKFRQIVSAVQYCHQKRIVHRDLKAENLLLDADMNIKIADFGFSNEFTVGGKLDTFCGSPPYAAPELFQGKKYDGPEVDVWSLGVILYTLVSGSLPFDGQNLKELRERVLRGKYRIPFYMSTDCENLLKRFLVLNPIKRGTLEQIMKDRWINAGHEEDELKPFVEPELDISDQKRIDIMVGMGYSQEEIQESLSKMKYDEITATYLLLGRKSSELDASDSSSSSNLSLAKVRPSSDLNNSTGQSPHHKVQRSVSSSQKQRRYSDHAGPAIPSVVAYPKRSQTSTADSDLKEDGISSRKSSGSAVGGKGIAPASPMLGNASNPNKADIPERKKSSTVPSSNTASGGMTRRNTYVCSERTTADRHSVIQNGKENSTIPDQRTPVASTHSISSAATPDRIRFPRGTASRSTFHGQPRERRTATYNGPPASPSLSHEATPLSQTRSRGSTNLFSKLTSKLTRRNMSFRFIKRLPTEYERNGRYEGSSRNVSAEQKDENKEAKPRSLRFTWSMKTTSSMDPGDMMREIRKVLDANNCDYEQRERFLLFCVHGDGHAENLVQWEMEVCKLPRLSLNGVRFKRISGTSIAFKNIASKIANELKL
In short: as §1

[5] = molecular target: TESK1 (Homo sapiens, UniProt Q15569); conditions: TESK1, 1 μM; read-out: % control
Chain of TESK1 (Q15569 whole entry): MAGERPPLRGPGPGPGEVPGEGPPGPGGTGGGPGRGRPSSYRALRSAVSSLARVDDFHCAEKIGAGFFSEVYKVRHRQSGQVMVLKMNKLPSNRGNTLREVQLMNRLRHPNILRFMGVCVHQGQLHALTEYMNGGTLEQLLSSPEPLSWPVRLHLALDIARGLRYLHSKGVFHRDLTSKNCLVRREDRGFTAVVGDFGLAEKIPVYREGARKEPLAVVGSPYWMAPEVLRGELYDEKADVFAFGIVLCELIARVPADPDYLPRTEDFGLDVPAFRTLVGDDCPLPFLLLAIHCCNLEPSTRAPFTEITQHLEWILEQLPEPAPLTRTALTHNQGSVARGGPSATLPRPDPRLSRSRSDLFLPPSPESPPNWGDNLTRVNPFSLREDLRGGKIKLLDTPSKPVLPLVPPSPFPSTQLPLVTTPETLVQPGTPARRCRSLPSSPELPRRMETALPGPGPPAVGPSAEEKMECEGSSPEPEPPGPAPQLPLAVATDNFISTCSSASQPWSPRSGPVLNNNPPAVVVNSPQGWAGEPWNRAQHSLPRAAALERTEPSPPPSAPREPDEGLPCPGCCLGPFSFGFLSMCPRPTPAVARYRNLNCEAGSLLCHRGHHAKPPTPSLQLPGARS
In short: as §1

[6] = molecular target: T3, ACVR2B (Homo sapiens, UniProt Q13705); conditions: read-out: % control
T3 construct: purchased KinomeScan®
T3 sequence (Q13705 19-512): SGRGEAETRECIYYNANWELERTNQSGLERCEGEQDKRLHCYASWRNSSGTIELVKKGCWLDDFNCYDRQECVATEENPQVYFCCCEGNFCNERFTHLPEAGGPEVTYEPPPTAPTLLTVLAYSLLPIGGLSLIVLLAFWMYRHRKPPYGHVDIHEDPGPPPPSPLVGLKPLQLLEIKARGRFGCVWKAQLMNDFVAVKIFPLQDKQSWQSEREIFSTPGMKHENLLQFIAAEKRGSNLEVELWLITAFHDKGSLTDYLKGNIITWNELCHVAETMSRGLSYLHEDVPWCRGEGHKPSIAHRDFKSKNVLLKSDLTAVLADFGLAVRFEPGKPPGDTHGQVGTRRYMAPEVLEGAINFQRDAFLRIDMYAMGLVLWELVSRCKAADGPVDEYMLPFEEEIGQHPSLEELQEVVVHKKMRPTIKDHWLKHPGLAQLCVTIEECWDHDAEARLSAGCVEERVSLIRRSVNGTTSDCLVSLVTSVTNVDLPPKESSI
In short: as §1

[7] = molecular target: T4, RSK4(Kin.Dom.1-N-terminal) (Homo sapiens, UniProt Q9UK32); conditions: read-out: % control
T4 construct: ribosomal S6 Kinase 4 (RSK4)(Kin.Dom.1-N-terminal)
T4 sequence (Q9UK32 73-330 limits assumed): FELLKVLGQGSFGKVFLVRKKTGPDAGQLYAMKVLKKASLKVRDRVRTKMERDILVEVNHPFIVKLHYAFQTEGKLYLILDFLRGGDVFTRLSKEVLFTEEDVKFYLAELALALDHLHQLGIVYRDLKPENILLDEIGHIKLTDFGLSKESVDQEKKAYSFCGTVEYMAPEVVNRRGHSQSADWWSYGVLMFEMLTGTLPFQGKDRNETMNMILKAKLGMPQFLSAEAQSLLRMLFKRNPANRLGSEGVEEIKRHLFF
In short: as §1

[8] = molecular target: T5, FLT3(N841I) (Homo sapiens, UniProt P36888, N841I); conditions: read-out: % control
T5 sequence (P36888 27-993 N841I): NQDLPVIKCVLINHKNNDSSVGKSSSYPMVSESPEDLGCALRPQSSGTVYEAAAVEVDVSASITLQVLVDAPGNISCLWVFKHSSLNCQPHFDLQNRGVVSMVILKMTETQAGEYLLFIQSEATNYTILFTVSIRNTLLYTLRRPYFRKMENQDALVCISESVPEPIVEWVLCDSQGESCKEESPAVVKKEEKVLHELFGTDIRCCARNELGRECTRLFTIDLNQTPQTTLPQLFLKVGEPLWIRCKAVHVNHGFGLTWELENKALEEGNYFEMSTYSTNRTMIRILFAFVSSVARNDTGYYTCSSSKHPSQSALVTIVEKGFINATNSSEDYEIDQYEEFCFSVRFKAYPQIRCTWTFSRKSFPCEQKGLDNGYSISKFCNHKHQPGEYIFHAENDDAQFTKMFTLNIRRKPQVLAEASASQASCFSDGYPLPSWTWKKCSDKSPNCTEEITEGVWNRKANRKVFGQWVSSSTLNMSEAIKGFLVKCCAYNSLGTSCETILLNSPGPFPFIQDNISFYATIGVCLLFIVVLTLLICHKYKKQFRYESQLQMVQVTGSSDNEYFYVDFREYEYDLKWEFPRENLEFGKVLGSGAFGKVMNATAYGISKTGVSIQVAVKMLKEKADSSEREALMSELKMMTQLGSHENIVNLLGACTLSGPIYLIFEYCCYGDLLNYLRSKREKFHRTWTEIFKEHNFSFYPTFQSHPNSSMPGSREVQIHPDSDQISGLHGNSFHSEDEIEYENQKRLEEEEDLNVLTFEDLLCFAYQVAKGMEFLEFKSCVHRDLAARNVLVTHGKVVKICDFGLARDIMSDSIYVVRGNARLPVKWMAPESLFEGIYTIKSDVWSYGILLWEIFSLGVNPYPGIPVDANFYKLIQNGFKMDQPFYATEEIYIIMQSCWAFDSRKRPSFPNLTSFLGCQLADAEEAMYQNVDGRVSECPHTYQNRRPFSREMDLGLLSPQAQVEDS
In short: as §1

[9] = molecular target: T6, PIK3CA(I800L) (Homo sapiens, UniProt P42336, I800L); conditions: read-out: % control
T6 construct: purchased KinomeScan® (panel service)
T6 sequence (P42336 whole entry I800L): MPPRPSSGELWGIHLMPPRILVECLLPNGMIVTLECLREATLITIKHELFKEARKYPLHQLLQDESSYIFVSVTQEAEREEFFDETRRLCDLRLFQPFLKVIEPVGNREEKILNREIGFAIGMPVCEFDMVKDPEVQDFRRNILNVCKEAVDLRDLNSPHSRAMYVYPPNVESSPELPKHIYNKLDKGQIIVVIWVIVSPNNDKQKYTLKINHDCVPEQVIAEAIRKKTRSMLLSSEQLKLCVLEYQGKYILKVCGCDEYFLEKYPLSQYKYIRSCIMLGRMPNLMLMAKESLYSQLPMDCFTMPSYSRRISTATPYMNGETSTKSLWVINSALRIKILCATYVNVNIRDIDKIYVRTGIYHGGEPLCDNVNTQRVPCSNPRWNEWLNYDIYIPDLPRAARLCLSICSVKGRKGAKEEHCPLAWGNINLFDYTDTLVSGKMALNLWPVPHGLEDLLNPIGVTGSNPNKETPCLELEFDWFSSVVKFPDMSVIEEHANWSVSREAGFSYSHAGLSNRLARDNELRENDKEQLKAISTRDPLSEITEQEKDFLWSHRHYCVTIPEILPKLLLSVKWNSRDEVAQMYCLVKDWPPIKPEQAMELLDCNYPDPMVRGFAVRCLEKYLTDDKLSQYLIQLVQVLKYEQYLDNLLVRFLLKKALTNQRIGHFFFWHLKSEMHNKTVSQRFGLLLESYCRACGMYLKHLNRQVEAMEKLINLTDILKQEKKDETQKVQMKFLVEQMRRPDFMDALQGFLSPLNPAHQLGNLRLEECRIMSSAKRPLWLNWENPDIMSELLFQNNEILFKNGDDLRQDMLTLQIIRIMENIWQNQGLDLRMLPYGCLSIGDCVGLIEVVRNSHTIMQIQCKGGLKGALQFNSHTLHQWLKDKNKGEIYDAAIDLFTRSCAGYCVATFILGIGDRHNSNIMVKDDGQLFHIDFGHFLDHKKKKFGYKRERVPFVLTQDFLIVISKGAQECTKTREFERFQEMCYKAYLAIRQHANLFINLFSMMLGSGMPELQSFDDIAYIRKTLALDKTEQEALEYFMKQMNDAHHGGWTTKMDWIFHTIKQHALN
In short: as §1

[10] = molecular target: T7, BLK (Homo sapiens, UniProt P51451); conditions: read-out: % control
T7 construct: purchased KinomeScan®
T7 sequence (P51451 whole entry): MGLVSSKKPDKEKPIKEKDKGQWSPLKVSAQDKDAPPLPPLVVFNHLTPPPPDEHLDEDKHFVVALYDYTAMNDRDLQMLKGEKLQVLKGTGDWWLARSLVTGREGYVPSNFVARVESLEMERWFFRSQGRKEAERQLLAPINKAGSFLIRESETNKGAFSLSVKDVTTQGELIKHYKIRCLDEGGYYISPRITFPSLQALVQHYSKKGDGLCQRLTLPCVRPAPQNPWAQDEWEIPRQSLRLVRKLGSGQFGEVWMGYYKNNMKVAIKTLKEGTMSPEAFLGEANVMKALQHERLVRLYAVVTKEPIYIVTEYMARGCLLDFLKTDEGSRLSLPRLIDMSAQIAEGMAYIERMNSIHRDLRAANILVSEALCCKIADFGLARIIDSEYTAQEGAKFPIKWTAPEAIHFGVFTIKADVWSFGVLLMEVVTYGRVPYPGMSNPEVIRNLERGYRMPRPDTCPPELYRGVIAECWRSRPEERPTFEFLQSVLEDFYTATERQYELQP
In short: as §1

Chain of PHKG1 (Q16816 whole entry): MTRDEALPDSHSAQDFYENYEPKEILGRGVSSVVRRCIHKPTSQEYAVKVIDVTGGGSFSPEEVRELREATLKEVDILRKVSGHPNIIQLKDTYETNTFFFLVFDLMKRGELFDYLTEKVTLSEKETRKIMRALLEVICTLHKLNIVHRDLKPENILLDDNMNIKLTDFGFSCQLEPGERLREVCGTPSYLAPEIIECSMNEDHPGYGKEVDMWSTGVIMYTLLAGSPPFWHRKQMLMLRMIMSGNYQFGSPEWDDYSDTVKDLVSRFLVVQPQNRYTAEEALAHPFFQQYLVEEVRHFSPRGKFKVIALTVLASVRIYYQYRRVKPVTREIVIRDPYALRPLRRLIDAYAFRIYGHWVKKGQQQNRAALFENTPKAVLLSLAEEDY

| Structure (SMILES) | remaining binding at 1 µM [1] | remaining binding at 1 µM [2] | remaining binding at 1 µM [3] | remaining binding at 1 µM [4] | remaining binding at 1 µM [5] | remaining binding at 1 µM [6] | remaining binding at 1 µM [7] | remaining binding at 1 µM [8] | remaining binding at 1 µM [9] | remaining binding at 1 µM [10] |
| --- | --- | --- | --- | --- | --- | --- | --- | --- | --- | --- |
| CNc1c(-c2cnn([C@H]3CCN(C(C)=O)C[C@@H]3F)c2)cnc2[nH]cc(Cl)c12 [Compound 77, 1-((3S,4S)-4-(4-(3-chloro-4-(methylamino)-1H-pyrrolo[2,3-b]pyridin-5-yl)-1H-pyrazol-1-yl)-3-fluoropiperidin-1-yl)ethan-1-one] | 100% | 91% | 90% | 82% | 89% | 77% | 32% | 1% | 566% | 100% |
| CNc1c(-c2ccc(C(=O)N3CCC(N4CCOCC4)CC3)cc2)cnc2[nH]cc(Cl)c12 [Compound 96, (4-(3-chloro-4-(methylamino)-1H-pyrrolo[2,3-b]pyridin-5-yl)phenyl)(4-morpholinopiperidin-1-yl)methanone] | 86% | 90% | 13% | 84% | 74% | 91% | 77% | 14% | 64% | 100% |
| O=C(c1ccc(-c2cnc3[nH]cc(Cl)c3c2NC2CCCC2)cc1)N1CCC(N2CCOCC2)CC1 [Compound 101, (4-(3-chloro-4-(cyclopentylamino)-1H-pyrrolo[2,3-b]pyridin-5-yl)phenyl)(4-morpholinopiperidin-1-yl)methanone] | 87% | 84% | 59% | 89% | 99% | 100% | 100% | 2.6% | 80% | 100% |

Reference: patent publication US12275731B2, “Azaindole inhibitors of wild-type and mutant forms of LRRK2” (DANA-FARBER CANCER INSTITUTE, INC., priority 2018, dated 2025)
